Data reported in patent US20040009904A1, “APL immunoreactive peptides, conjugates thereof and methods of treatment for aPL antibody-mediated pathologies” (priority 1995, published 2004).
Bridge positions count the residues as written; N and C are the ends. Peptide text beside a SMILES is read from it.

Key:
ACA-6501 aPL antibody = assay: Competitive binding peptide-ELISA, plates coated with tetravalent peptide ACA-6501/3B10; parameters: species or system human; details: monomeric peptide, ACA-6501 serum
Description: Once ELISA-positive peptides are identified, it is necessary to quantitate their relative binding affinity to the aPL antibodies and to determine whether or not two peptides bind the same population of antibodies in a given patient serum via a peptide-competition ELISA assay. In this assay, various monomeric peptides compete with tetravalent peptides coated on a microtitration plate well. To perform the assay, the peptides to be evaluated are synthesized as monomers, ie., without the lysine branches employed in the synthesis of the tetravalent peptides, using standard Fmoc chemistry. The monomeric peptides are then purified and dissolved at known concentrations. Wells of a microtitration plate are coated with a tetravalent peptide known to bind to the aPL antibody. Serial dilutions of the monomeric peptides are incubated with a constant dilution of the aPL antibody. The dilution of the aPL antibody was previously determined by titering the antibody against the tetravalent peptide and selecting a dilution on the downslope of the titration curve. After incubating the antibody and monomeric peptides for one hour, the antibody/peptide solutions are added to the microtitration wells and a standard […] ELISA is performed. The concentration of each monomeric peptide that decreases binding of the aPL antibody with the tetravalent peptide is determined by plotting the calorimetric readings obtained for each well. The 50% inhibition point is used as the measure of the relative strength of binding for the monomeric peptides.
(A) Each well of an Immulon II plate (Dynatech Laboratories, Inc., Chantilly Va.) was coated with 100 μL of a solution containing 10 μg tetravalent peptide ACA 6501/3B10 in 50 mM sodium carbonate, pH 9.5, containing 35 mM sodium bicarbonate (Fisher Scientific, Pittsburgh, Pa., reagent grade) for at least 1 hour at RT, except for three wells used as blank controls. […]

ACA-6501 [1] = assay: Phage-ELISA; format: binding, human; details: phage clones coated on wells, affACA-6501 2.5 μg/mL
Experimental: This method of selecting phage requires very tight binding of the insert to the screening antibody. Phage are directly coated onto wells of a microtitration plate and incubated with the screening antibody. Following washes to remove unbound antibody, an anti-human IgG alkaline phosphatase conjugate is added to bind any aPL antibodies bound to the phage. APL antibodies are then detected by adding a calorimetric substrate to the well which will react with alkaline phosphatase according to methods well known in the art.
Three mL cultures were prepared from 35 clones previously isolated with affinity purified ACA-6501 in several phage library screens as well as one fUSE 2 phage clone lacking a peptide insert which was used as a control. After centrifugation for 3 minutes at 17,000×g, 100 μL from each phage supernatant (adjusted to −2×10^11 particles/mL, based on absorbance) was added to microtitration plate wells (Falcon, Becton-Dickinson Labware, Lincoln Park, N.Y.) and allowed to incubate overnight at 4° C. Following four washes with TBS 7.4, the plate was blocked with 125 μL of 0.5% BSA/TBS for 1 hour at RT. After another four TBS washes, 100 μL of affACA-6501 previously diluted to 2.5 μg/mL in TBS/BSA was added to each well and allowed to incubate 1 hour at 37° C. Following an additional four washes, 100 μL anti-human IgG diluted 1:1000 in TBS/0.5% Tween was added to each well. After 1 hour at RT, enzyme substrate was added and the incubation allowed to proceed for 2 hours. Following the addition of 50 μL 0.2 M Na2HPO4 to stop the reaction, absorbance was measured at 550 nm in the automated plate absorbance reader. […] The sequences for these clones are showvn in Table 2.

ACA-6501 [2] = assay: Competitive binding peptide ACA ELISA, cardiolipin/β2-GPI-coated plates; parameters: species or system human; details: peptide 200 μg/mL, affinity purified antibody
Procedure, shortened: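 Monomeric peptides at several amounts were preincubated ~1 h at RT with ACA-6501 serum (final 1:400), then added to cardiolipin-coated, fish-gelatin-blocked plates with β2-GPI for 1 h at RT. Bound IgG was detected with alkaline phosphatase anti-human IgG and phenolphthalein monophosphate, read at 550 nm. IC50 was the peptide amount at half-maximal absorbance.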

ACA-6626 = assay: as above; parameters: species or system human; details: peptide 200 μg/mL, affinity purified antibody
Experimental: (§1) A variation of this assay uses microtitration plates coated with human β2-glycoprotein I/cardiolipin (β2-GPI/CL) instead of tetravalent peptide and tests the ability of monomeric peptides to block the binding of aPL antibody to the epitope(s) on β2-GPI/CL. In this assay, IgG-depleted human serum at an optimized concentration is used as a source of β2-GPI. The monomeric peptides at several concentrations are incubated with an optimized concentration of aPL antibody in a manner analogous to the assay which employs tetravalent peptide as a plate substrate. Following the incubation of aPL/peptide in (β2-GPI/CL) plates, antibody binding and the peptide concentration required for 50% inhibition is determined at half-maximal absorbance as in the tetravalent assay.
(§2) Peptide sequences for all five peptides immediately follow the table. All were tested using the competitive binding peptide ACA ELISA using CL/β2-GPI plates as described herein.
(§3) (B) Immulon I® 96-well, flat-bottom, polystyrene microtitration plates (Dynatech Laboratories, Inc., Chantilly, Va.) were coated with 30 μL/well of cardiolipin (CL, 50 μg; Sigma Chemical Co., St. Louis, Mo.) in ethanol. Two control wells received 30 μL ethanol only. After overnight evaporation at 4° C., each well was blocked with 200 μL of 5% (w/v) fish gelatin in PBS for 2 hours at RT.
(§4) The CL/β2-GPI microtitration plate was washed 5 times with TBS and 100 μL aliquots in duplicate from Eppendorf tubes #1, 2, 3, and 4 containing the antibody-peptide (or no peptide mixtures) were added to the wells. A volume of 100 μL from tube #4 was added to the duplicate control wells containing no cardiolipin. The microtitration plate was incubated for 1 hour at RT with agitation at 40 rpm in an orbital shaker (American Scientific, Rotator V), washed 5 times with TBS and then 100 μL of 1:1000 goat anti-human IgG alkaline phosphatase conjugate (Zymed, Cat No. 62-8422) in 0.5% (w/v) BSA-TBS was added. Following incubation for 1 hour at RT, the microtitration plate was again washed 5 times with TBS and the colorimetric enzyme detection developed by adding 100 μL of PMPP solution (7.8 g phenolphthalein monophosphate plus 69.5 g of 2-amino-2-methyl-1-propanol in 100 mL water stock solution diluted 1:26 with water). After 21 minutes, the reaction was stopped by adding 50 μL of 0.2 M Na2HPO4 (Mallinckrodt) to each well. Absorbance at 550 nm was read in a microplate reader (Bio-Tek Instruments, Model EL 311). The amount of peptide that inhibited ACA-6501 binding by 50%, the IC50, was calculated from the graph at the intersection of half-maximal absorbance with amount of peptide added.

ACA-6638 = assay: as above; parameters: species or system human; details: peptide 200 μg/mL, affinity purified antibody
Experimental: as §1, §2, §3, §4

ACA-6641 = assay: as above; parameters: species or system human; details: peptide 200 μg/mL, affinity purified antibody
Experimental: as §1, §2, §3, §4

ACA-6644 = assay: as above; parameters: species or system human; details: peptide 200 μg/mL, affinity purified antibody
Experimental: as §1, §2, §3, §4

ACA-6701 = assay: as above; parameters: species or system human; details: peptide 200 μg/mL, affinity purified antibody
Experimental: as §1, §2, §3, §4

ACA-6903 = assay: as above; parameters: species or system human; details: peptide 200 μg/mL, affinity purified antibody
Experimental: as §1, §2, §3, §4

ACA-7004 = assay: as above; parameters: species or system human; details: peptide 200 μg/mL, affinity purified antibody
Experimental: as §1, §2, §3, §4

ACA-7005 = assay: as above; parameters: species or system human; details: peptide 200 μg/mL, affinity purified antibody
Experimental: as §1, §2, §3, §4

ACA antibodies = assay: Competitive binding peptide ACA ELISA, cardiolipin/β2-GPI-coated plates, panel of ACA antibodies (average); parameters: species or system human; details: peptide 200 μg/mL, average over nine antibodies
Experimental: as §1, §2
As noted in Section I above, one synthetic peptide, 6641/3G3 was tested against several high titer ACA antisera. This peptide appeared to be crossreactive with the vast majority of ACA antisera tested as illustrated in FIG. 14.
as §3, §4

CC(C)C[C@@H]1NC(=O)[C@H](CC(C)C)NC(=O)[C@H](CC(C)C)NC(=O)[C@@H](NC(=O)[C@@H]2CCCN2)CSSC[C@@H](C(=O)N2CCC[C@H]2C(=O)NCC(=O)O)NC(=O)[C@H](CCCNC(=N)N)NC(=O)[C@H](CC(=O)O)NC(=O)[C@@H]2CCCN2C(=O)[C@H](C)NC1=O [peptide 139] (H-PCLLLAPDRCPG-OH; disulfide 2-10)
amount of peptide producing 50% inhibition of binding of ACA-6501 aPL antibody to tetravalent peptide ACA-6501/3B10 (ACA-6501 aPL antibody): 6.9 µg

CC(C)C[C@@H]1NC(=O)[C@H](CC(C)C)NC(=O)[C@H](CC(C)C)NC(=O)[C@@H](NC(=O)[C@@H]2CCCN2C(=O)CN)CSSC[C@@H](C(=O)N2CCC[C@H]2C(=O)NCC(=O)O)NC(=O)[C@H](CCCNC(=N)N)NC(=O)[C@H](CC(=O)O)NC(=O)[C@@H]2CCCN2C(=O)[C@H](C)NC1=O [peptide 142] (H-GPCLLLAPDRCPG-OH; disulfide 3-11)
amount of peptide producing 50% inhibition of binding of ACA-6501 aPL antibody to tetravalent peptide ACA-6501/3B10 (ACA-6501 aPL antibody): 0.7 µg

CC(C)C[C@@H]1NC(=O)[C@H](CC(C)C)NC(=O)[C@H](CC(C)C)NC(=O)[C@@H](NC(=O)[C@@H]2CCCN2C(=O)CNC(=O)[C@H](C)N)CSSC[C@@H](C(=O)N2CCC[C@H]2C(=O)NCC(=O)O)NC(=O)[C@H](CCCNC(=N)N)NC(=O)[C@H](CC(=O)O)NC(=O)[C@@H]2CCCN2C(=O)[C@H](C)NC1=O [peptide 143] (H-AGPCLLLAPDRCPG-OH; disulfide 4-12)
amount of peptide producing 50% inhibition of binding of ACA-6501 aPL antibody to tetravalent peptide ACA-6501/3B10 (ACA-6501 aPL antibody): 0.9 µg

CILLAHDRC [3E7, ACA-6501 phage clone insert]
signal in the phage-ELISA (ACA-6501 [1]): significant signals

CLVLALDRC [3B6, ACA-6501 phage clone insert]
signal in the phage-ELISA (ACA-6501 [1]): significant signals

CTILTLDRC [2H2, ACA-6501 phage clone insert]
signal in the phage-ELISA (ACA-6501 [1]): significant signals

GILALDYV GG (GILALDYVGG) [6644/CBf]
Percent Inhibition of AffACA by Peptide Monomers, 6501 (ACA-6501 [2]): 37% | Percent Inhibition of AffACA by Peptide Monomers, 6626 (ACA-6626): 37% | Percent Inhibition of AffACA by Peptide Monomers, 6638 (ACA-6638): 60% | Percent Inhibition of AffACA by Peptide Monomers, 6641 (ACA-6641): 28% | Percent Inhibition of AffACA by Peptide Monomers, 6644 (ACA-6644): 18% | Percent Inhibition of AffACA by Peptide Monomers, 6701 (ACA-6701): 22% | Percent Inhibition of AffACA by Peptide Monomers, 6903 (ACA-6903): 43% | Percent Inhibition of AffACA by Peptide Monomers, 7004 (ACA-7004): 54% | Percent Inhibition of AffACA by Peptide Monomers, 7005 (ACA-7005): 57% | Percent Inhibition of AffACA by Peptide Monomers, Ave. (ACA antibodies): 39%
